Experimental data taken from PubChem BioAssay AID222 (DTP/NCI, 2004).
Values joined by “and” are separate entries in the source; they are usually repeats but may differ in a detail not shown here. Equal values may be shown once. Toxic doses and inconclusive results are not listed. The calls were made as follows: active = survival T/C of 150% or more; inactive = T/C below 125% in these data.

Tested on: C57BL/6 mice, intracerebral ependymoblastoma, median survival T/C
Assay: NCI In Vivo Anticancer Drug Screen. Data for tumor model Ependymoblastoma (intracerebral) in C57BL/6 mice
Details: endpoint: median survival time, higher = longer survival
Method: The antitumor activity of compounds was measured in mice bearing transplantable tumors. Survival or tumor size were measured and the results are expressed as the measurement made in the treated group (T) divided by the measurement made in the vehicle treated control group (C). The tumor model used in this assay is Ependymoblastoma (intracerebral) in C57BL/6 mice

[1] = dose: 8.0 mg/kg/injection, schedule: Q01DX005 (ip), vehicle: saline
[2] = dose: 16.0 mg/kg/injection, schedule: Q01DX005 (ip), vehicle: saline with Tween-80
[3] = dose: 32.0 mg/kg/injection, schedule: Q01DX005 (ip), vehicle: saline with Tween-80
[4] = dose: 32.0 mg/kg/injection, schedule: Q01DX005 (ip), vehicle: saline
[5] = dose: 64.0 mg/kg/injection, schedule: Q01DX005 (ip), vehicle: saline with Tween-80
[6] = dose: 64.0 mg/kg/injection, schedule: Q01DX005 (ip), vehicle: saline
[7] = dose: 2.0 mg/kg/injection, schedule: Q01DX005 (ip), vehicle: Klucel (hydroxypropylcellulose) (HPC)
[8] = dose: 4.0 mg/kg/injection, schedule: Q01DX005 (ip), vehicle: Klucel (hydroxypropylcellulose) (HPC)
[9] = dose: 8.0 mg/kg/injection, schedule: Q01DX005 (ip), vehicle: Klucel (hydroxypropylcellulose) (HPC)
[10] = dose: 16.0 mg/kg/injection, schedule: Q01DX005 (ip), vehicle: Klucel (hydroxypropylcellulose) (HPC)
[11] = dose: 32.0 mg/kg/injection, schedule: Q01DX005 (ip), vehicle: Klucel (hydroxypropylcellulose) (HPC)
[12] = dose: 64.0 mg/kg/injection, schedule: Q01DX005 (ip), vehicle: Klucel (hydroxypropylcellulose) (HPC)
[13] = dose: 90.0 mg/kg/injection, schedule: Q01DX005 (ip), vehicle: saline with Tween-80
[14] = dose: 1.0 mg/kg/injection, schedule: Q01DX005 (ip), vehicle: Klucel (hydroxypropylcellulose) (HPC)

Measured: T/C

N=C(N)SCc1c2ccccc2c(CSC(=N)N)c2ccccc12
inactive: dose: 2.5 mg/kg/injection, schedule: Q01DX005 (ip), vehicle: Klucel (hydroxypropylcellulose) (HPC) 99 % of control | dose: 5.0 mg/kg/injection, schedule: Q01DX005 (ip), vehicle: Klucel (hydroxypropylcellulose) (HPC) 100 % of control | dose: 10.0 mg/kg/injection, schedule: Q01DX005 (ip), vehicle: Klucel (hydroxypropylcellulose) (HPC) 90 % of control | dose: 20.0 mg/kg/injection, schedule: Q01DX005 (ip), vehicle: Klucel (hydroxypropylcellulose) (HPC) 102 % of control

CCN(CC)CCCC(C)Nc1c2ccc(Cl)cc2nc2ccc(OC)cc12 (stereo not given)
inactive: [1] 104 % of control | [2] 91 % of control | dose: 16.0 mg/kg/injection, schedule: Q01DX005 (ip), vehicle: saline 98 % of control | [3] 102 % of control | [4] 90 % of control | [5] 94 % of control | [6] 95 % of control | dose: 128.0 mg/kg/injection, schedule: Q01DX005 (ip), vehicle: saline with Tween-80 94 % of control

COC1C(O)C(C)OC(OC2C(Oc3cccc4c(O)c5c(=O)oc6ccc(C)c7c(=O)oc(c34)c5c67)OC(C)C(O)C2O)C1O (stereo not given)
inactive: [7] 105 % of control and 122 % of control and 124 % of control | [8] 95 % of control and 106 % of control | [9] 90 % of control and 111 % of control and 122 % of control | [10] 99 % of control and 113 % of control and 124 % of control | [11] 97 % of control and 103 % of control | [12] 99 % of control and 105 % of control and 107 % of control

O=C(N[C@H](CO)[C@H](O)c1ccc([N+](=O)[O-])cc1)C(Cl)Cl
inactive: [13] 97 % of control | dose: 180.0 mg/kg/injection, schedule: Q01DX005 (ip), vehicle: saline with Tween-80 95 % of control and 100 % of control | dose: 360.0 mg/kg/injection, schedule: Q01DX005 (ip), vehicle: saline with Tween-80 87 % of control and 101 % of control | dose: 720.0 mg/kg/injection, schedule: Q01DX005 (ip), vehicle: saline with Tween-80 98 % of control

C[C@@H](CN1CC(=O)NC(=O)C1)N1CC(=O)NC(=O)C1
inactive: dose: 1.0 mg/kg/injection, schedule: Q01DX005 (ip), vehicle: water 110 % of control | [8] 103 % of control (2×) and 118 % of control | dose: 4.0 mg/kg/injection, schedule: Q01DX005 (ip), vehicle: saline with Tween-80 103 % of control | dose: 4.0 mg/kg/injection, schedule: Q01DX005 (ip), vehicle: water 106 % of control | dose: 8.0 mg/kg/injection, schedule: Q01DX005 (ip), vehicle: saline with Tween-80 104 % of control | [10] 106 % of control and 112 % of control and 120 % of control | [2] 108 % of control | dose: 16.0 mg/kg/injection, schedule: Q01DX005 (ip), vehicle: water 111 % of control | [3] 112 % of control | [4] 108 % of control and 111 % of control | [12] 115 % of control and 121 % of control | [5] 113 % of control | [6] 119 % of control and 121 % of control | dose: 64.0 mg/kg/injection, schedule: Q01DX005 (ip), vehicle: water 116 % of control | dose: 128.0 mg/kg/injection, schedule: Q01DX005 (ip), vehicle: saline 120 % of control

C[n+]1ccc(Nc2ccc(NC(=O)c3ccc(Nc4cc[n+](C)c5ccc(N)cc45)cc3)cc2)cc1
inactive: [14] 95 % of control | [7] 113 % of control | [8] 108 % of control | [9] 113 % of control

O=C(O)CCCc1ccc(N(CCCl)CCCl)cc1
inactive: dose: 0.12 mg/kg/injection, schedule: Q01DX005 (ip), vehicle: Klucel (hydroxypropylcellulose) (HPC) 115 % of control | dose: 0.25 mg/kg/injection, schedule: Q01DX005 (ip), vehicle: Klucel (hydroxypropylcellulose) (HPC) 110 % of control | [14] 100 % of control | dose: 2.0 mg/kg/injection, schedule: Q01DX001 (ip), vehicle: Klucel (hydroxypropylcellulose) (HPC) 100 % of control | [7] 100 % of control and 111 % of control and 120 % of control | dose: 4.0 mg/kg/injection, schedule: Q01DX001 (ip), vehicle: Klucel (hydroxypropylcellulose) (HPC) 106 % of control | [8] 107 % of control and 109 % of control and 122 % of control | dose: 8.0 mg/kg/injection, schedule: Q01DX001 (ip), vehicle: Klucel (hydroxypropylcellulose) (HPC) 105 % of control | [9] 109 % of control and 110 % of control and 122 % of control | [10] 96 % of control and 122 % of control

c1ccc([C@H]2CN3CCSC3=N2)cc1
inactive: dose: 5.0 mg/kg/injection, schedule: Q01DX005 (ip), vehicle: saline 103 % of control | dose: 5.0 mg/kg/injection, schedule: Q01DX009 (ip), vehicle: saline 99 % of control | dose: 10.0 mg/kg/injection, schedule: Q01DX005 (ip), vehicle: saline 96 % of control | dose: 10.0 mg/kg/injection, schedule: Q01DX009 (ip), vehicle: saline 113 % of control | dose: 20.0 mg/kg/injection, schedule: Q01DX005 (ip), vehicle: saline 101 % of control | dose: 20.0 mg/kg/injection, schedule: Q01DX009 (ip), vehicle: saline 107 % of control | dose: 40.0 mg/kg/injection, schedule: Q01DX005 (ip), vehicle: saline 101 % of control

ClC(Cl)=C(Cl)Cl
inactive: dose: 22.0 mg/kg/injection, schedule: Q01DX005 (ip), vehicle: saline with Tween-80 111 % of control | dose: 45.0 mg/kg/injection, schedule: Q01DX005 (ip), vehicle: saline with Tween-80 90 % of control | [13] 88 % of control and 92 % of control

CN(C)CC(=O)c1ccc(O)c(O)c1
inactive: dose: 100.0 mg/kg/injection, schedule: Q01DX005 (ip), vehicle: saline 101 % of control | dose: 200.0 mg/kg/injection, schedule: Q01DX005 (ip), vehicle: saline 99 % of control | dose: 400.0 mg/kg/injection, schedule: Q01DX005 (ip), vehicle: saline 108 % of control

C[CH2][Ge]1([CH2]C)[CH2]CC2(CCN(CCCN(C)C)C2)C[CH2]1
inactive: dose: 4.0 mg/kg/injection, schedule: Q01DX005 (ip), vehicle: saline 104 % of control | [1] 98 % of control and 101 % of control and 108 % of control

CCN(CC)CCOc1ccc(/C(=C(\Cl)c2ccccc2)c2ccccc2)cc1
inactive: [9] 97 % of control and 99 % of control | [10] 97 % of control and 108 % of control | [11] 95 % of control and 112 % of control | dose: 32.0 mg/kg/injection, schedule: Q01DX005 (oral), vehicle: Klucel (hydroxypropylcellulose) (HPC) 101 % of control | [12] 88 % of control and 95 % of control | dose: 64.0 mg/kg/injection, schedule: Q01DX005 (oral), vehicle: Klucel (hydroxypropylcellulose) (HPC) 104 % of control | dose: 128.0 mg/kg/injection, schedule: Q01DX005 (oral), vehicle: Klucel (hydroxypropylcellulose) (HPC) 96 % of control

O=C(CCBr)N1CCN(C(=O)CCBr)CC1
inactive: dose: 2.5 mg/kg/injection, schedule: Q01DX005 (ip), vehicle: saline with Tween-80 98 % of control | dose: 5.0 mg/kg/injection, schedule: Q01DX005 (ip), vehicle: saline with Tween-80 103 % of control | dose: 10.0 mg/kg/injection, schedule: Q01DX005 (ip), vehicle: saline with Tween-80 92 % of control | dose: 20.0 mg/kg/injection, schedule: Q01DX005 (ip), vehicle: saline with Tween-80 105 % of control | dose: 40.0 mg/kg/injection, schedule: Q01DX005 (ip), vehicle: saline with Tween-80 105 % of control | dose: 80.0 mg/kg/injection, schedule: Q01DX005 (ip), vehicle: saline with Tween-80 111 % of control

CC[n+]1c(-c2ccccc2)c2cc(N)ccc2c2ccc(N)cc21
inactive: dose: 12.0 mg/kg/injection, schedule: Q01DX005 (ip), vehicle: saline 99 % of control
